Results: US11058772B2, “(Bacterio)chlorophyll photosensitizers for treatment of eye diseases and disorders” (Yeda Research and Development Co. Ltd., priority 2011, dated 2021)
“Also recorded” adds a separate entry of the source.

Key:
[1] = ESR spin trapping (4-POBN) of reactive oxygen species in aqueous solution; format: physicochemical; settings: NIR (WST11) or UVA (RF) irradiation
Experimental: All ESR measurements were carried out using a Magnettech ESR Miniscope MS 100 Spectrometer (Germany), with a Microwave X-band Bridge. The ESR spectrometer operates at 9.3-9.55 GHz, 20 mW microwave power. ESR measurements were carried out at room temperature in glass capillaries or flat cells. […] To each solution, the spin-trap α-(4-pyridyl N-oxide)-N-tert-butylnitrone (4-POBN, 65 mM) and ethanol (8%) were added. Controls contained illuminated 4-POBN in saline with/without dextran, and non-illuminated Bchl-S, Bchl-D, RF and RF-D solutions with/without 4-POBN.

rabbit cornea = assay: Clinical course after in vivo cornea treatment (edema, epithelial healing, haze); settings: for epithelial haze / time to healing of corneal epithelial defect: dipotassium salt
Experimental: Twelve to twenty five weeks old rabbits (2.5-3 Kg weight) were used. They were anesthetized by intramuscular (i.m.) injection of 35 mg/kg ketamine (Rhone Merieux, Lyon, France) and 5 mg/kg xylazine (Vitamed, Binyamina, Israel). Usually, 16 rabbits were assigned for bacteriochlorophyll treatment. After de-epithelialization, one eye of each rabbit was treated topically with a test compound in saline for 10, 20 and 30 minutes using an eye cap (12 mm in diameter), followed by NIR illumination for 10, 20 or 30 minutes (755 nm, 10 mW/cm^2). The other eye served as untreated control. To prevent exposure of the limbal stem cells, the illuminated area was restricted by an aluminum foil mask with an 8 mm diameter central opening. To determine the role of dextran, 12 rabbits were divided into 4 treatment groups of 3 rabbits each: group 1, the Bchl-S group, was treated with a saline solution of a bacteriochlorophyll derivative; group 2, the Bchl-D group, treated with a bacteriochlorophyll-dextran solution. Both groups were incubated with the test compound for 20-min, followed by NIR illumination (755 nm, 10 mW/cm^2) for 30 minutes. Group 3, the RF group, was treated with riboflavin without dextran, and group 4, the RF-D group was treated with RF-dextran solution (RF-D). Both groups were incubated with RF or RF-D solutions for 30-minute, followed by UVA illumination (370 nm, 3 mW/cm^2) for 30 minutes. An ophthalmic ointment containing dexamethasone 0.1%, neomycin and polymixin B (Maxitrol®, Alcon, Belgium) was applied on the treated eyes once daily for two weeks. Four weeks after the treatment the rabbits were sacrificed, and the corneoscleral rings were removed and placed on paraffin hemisphere buttons of matching shape to assure accurate sectioning without stretching the tissue. Corneal strips, 4±0.2 mm in width, were cut from the epithelial side, as described above in the ex-vivo section. The corneal strips were transferred to the biomechanical tester without delay.
To determine the role of dextran, the photochemical treatment with a formulation of WST11 2.5 mg/ml containing 20% dextran T-500 (WST11-D) was examined. Six rabbits were examined: 3 rabbits were pretreated for 20 min with WST11-S solution and 3 with WST11-D solution, followed by NIR illumination for 30 minutes. Additional 4 rabbits were treated with RF (n=2) or RF-D (n=2) for 30 minutes, followed by 30-min UVA irradiation (370 nm, 3 mW/cm^2).

[2] = tested on: de-epithelialized rabbit cornea; assay: Photobleaching of photosensitizer in ex-vivo treated corneas; settings: 20 min pretreatment
Experimental: Corneas of eyes from euthanized rabbits were de-epithelialized. Usually, 5 rabbits were tested, and 8 of the 10 eyes were pretreated for 20 minutes with a bacteriochlorophyll derivative in saline (Bchl-S), using an eye cap. The solution excess was carefully tipped off with filter paper. The eyes were irradiated for the specified time duration: 0, 10, 30, and 60 min (two corneas per time frame). Additional two eyes were used as control. The corneas were removed, and the central buttons of 8-mm diameter were punched out with a round trephine. Absorption spectra were recorded using V-570 spectrophotometer (Jasco, Japan).
It was previously described by the present inventors that generation of oxygen radicals upon illumination of certain bacteriochlorophyll derivatives such as WST11 in the absence of serum albumin is accompanied by bleaching of the NIR transition and absorption increase at ˜645 nm due to the photochemical generation of a chlorophyll-like molecules (Ashur et al. 2009). Such changes are therefore important markers for the photochemical activity of such bacteriochlorophyll derivatives in situ. […] Results obtained for 10 corneas of 5 euthanized rabbits treated with WST11 in saline are presented herein.
Eight de-epithelialized eyes were retreated with WST11-S for 20 min using an eye cap, and the remaining 2 eyes served as control. […] In parallel, the absorption increased at 645 nm (upward arrow), typical to the corresponding chlorin derivative formation by the photochemical interaction of WST11 with molecular oxygen (Ashur et al., 2009)

[3] = tested on: rabbit cornea (keratocytes, endothelium), retina; assay: Histology and endothelial staining after in vivo treatment; settings: two days after treatment
Experimental: Forty eight hours or 1 week after treatment with Bchl-S, Bchl-D, RF or RF-D, rabbits were euthanized, and the eyes were immediately enucleated and fixated in Davidson's fixative (48 hour post treatment) or in 4% formaldehyde (1 week post treatment). […] sections were prepared from either the whole eye or corneas and stained with hematoxylin-eosin (H&E). The pathology of the corneal and retinal sections was examined. The sections were photographed with a digital video camera (Nikon DS-Ril, Japan), mounted on a light microscope (E-800 Leica, Germany). Keratocyte and endothelial cell densities were counted in 2 areas of 2 central histological sections and calculated, using Image-Pro software (MediaCybernetics, MD, USA). Rabbits underwent analysis of corneal endothelial damage 1 day post treatment, using alizarine red S and trypan blue staining as described in Spence and […], 1976. The treatment included either a 20-minute pretreatment with Bchl-S or Bchl-D solutions, followed by 30-minute irradiation at 755 nm (2 rabbits), or only a 30-minute irradiation at 760 nm (2 rabbits). Contralateral non-treated eyes served as controls. One rabbit underwent treatment with WST11 in saline (WST11-S; 20-minute incubation, 30-minute irradiation at 755 nm). Six rabbits underwent treatment with WS[…] (n=4, 20-minute incubation, 30-minute irradiation at 755 nm), or with RF-D (n=2, 30-minute incubation, 30-minute irradiation at 370 nm) as described above (In-vivo studies section). Contralateral eyes were used as control.

[4] = tested on: rabbit cornea keratocytes; assay: Staining for apoptosis (TUNEL assay); format: in vivo; settings: one day postoperatively
Experimental: For apoptosis detection, rabbits were euthanized one day post Bchl-S or Bchl-D treatment. Their corneas were removed, fixated in 4% formaldehyde and embedded in paraffin. […] central sections were prepared from the corneas, placed on microscope slides and deparaffinized. Peroxidase-based terminal deoxyribonucleotidyl transferase-mediated dUTP-digoxigenin nick and labeling (TUNEL) assay was performed according to the manufacturer's instructions (Apop-Tag assay, Chemicon, Merck Millipore, Darmstadt, Germany).

[5] = in vivo after photosensitizer + illumination
[6] = in vivo after photosensitizer + illumination, listed as WST11-S

corneal edema after treatment, duration (rabbit cornea; in vivo, saline solution/NIR): one week
corneal edema (histology) [3]: marked edema
cornea swelling (thickness) ([3]; histology): 890 μm
endothelial counts, treatment vs control ([3]; P=0.47): no statistical difference
SMILES: CCC1C2=Cc3c(C)c(C(=O)NCCS(=O)(=O)[O-])c4[n]3[Pd][n]3c(c(C)c(C(C)=O)c3=CC(=N2)C1C)=CC1=NC(=C4CC(=O)OC)C(CCC(=O)[O-])C1C.[K+].[K+] (centres unmarked) [WST11, Palladium 3^1-oxo-15-methoxycarbonylmethyl-rhodobacteriochlorin 13^1-(2-sulfoethyl)amide dipotassium salt]
singlet oxygen trapping (ESR quartet of 4-POBN) [1]: minimal traces of singlet oxygen
superoxide and hydroxyl radicals (ESR sextet of 4-POBN) ([1]; dipotassium salt): generate superoxide and hydroxyl radicals; also recorded: superoxide and hydroxyl radical formation
time to clearing of corneal edema (rabbit cornea; [5]): 5 days
epithelial haze (rabbit cornea; [5]): without haze development
time to healing of corneal epithelial defect (rabbit cornea; [5]): 7 to 9 days
epithelial haze (rabbit cornea; [6]): some corneas demonstrating epithelial haze
time to healing of corneal epithelial defect (rabbit cornea; [6]): 10 to 14 days
755-nm absorption of corneal WST11 diminished by ([2]; NIR illumination 10 min): 30%
755-nm absorption of corneal WST11 diminished by ([2]; NIR illumination 30 min): 50%
755-nm absorption of corneal WST11 diminished by ([2]; NIR illumination 60 min): 75%
keratocytes in stroma (histology) [3]: reduced number of keratocytes throughout the stroma
endothelial cell layer / damage to the endothelium ([3]; H&E and vital staining, listed as WST11-S, dipotassium salt): appeared intact
location of TUNEL-positive keratocytes [4]: outer ½ of anterior stroma
